The target in assay [1] is WDR5 (Homo sapiens (Human), UniProt P61964). Put plainly: TR-FRET binding assay (displacement of 10mer-Thr-FAM probe from WDR5). Particulars: read-out: Ki for Inhibition of WDR5 by TR-FRET assay. A general note: Time-resolved FRET reads energy transfer from a long-lived donor to a nearby acceptor.
The test system of assay [2] is MV4:11 human cancer cell lines. The experiment in a line: Anti-proliferative activity, CellTiter-Glo viability assay, 7 day protocol. It is filed as cell-based. To be noted: Homo sapiens, MV4-11, 168 h, MV4:11 cells, 7 day incubation, read-out: GI50 on cellular proliferation of MV4:11 human cancer cell lines. Summed up:
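MV4:11 cells seeded at 3600 cells/ml and exposed to compounds for 7 days, 0.1% DMSO final. Viability measured by CellTiter-Glo luminescence. GI50 from three biological replicates, each in technical triplicate, given as mean ± S.E.M.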
(In general: Cellular ATP, detected with luciferase, serves as a proxy for viable cell number.)

The mark [3] stands for this setting: TR-FRET, 10mer-Thr-FAM probe, WDR5-His tag 2 nM, pH 7.0.

Our source for the Ki and GI50 values is US10844044B2 (Vanderbilt University, priority 2018, dated 2020).

Like-named read-outs stand apart in the source and are kept apart here.

By Ki is commonly meant the equilibrium dissociation constant of an inhibitor or competing ligand from its target.

`CCn1cc(-c2cc(Cn3ccsc3=N)cc(C(=O)N[C@H](c3ccc(Cl)c(F)c3)C3CC3)c2)c(C(F)(F)F)n1` [Example 324, (S)—N-((4-Chloro-3-fluorphenyl)(cyclopropyl)methyl)-3-(1-ethyl-3-(trifluoromethyl)-1H-pyrazol-4-yl)-5-((2-iminothiazol-3(2H)-yl)methyl)benzamide]: the inhibition constant Ki in assay [1] is under 0.1 nM. Besides, the GI50 in assay [2] was under 100 nM.
In the case of `Cc1cc([C@@H](NC(=O)c2cc(Cn3ccsc3=N)cc(-c3cn(C)nc3C(F)(F)F)c2)C2CC2)ncc1F` [Example 325, (S)—N-(Cyclopropyl(5-fluoro-4-methylpyridin-2-yl)methyl)-3-((2-iminothiazol-3(2H)-yl)methyl)-5-(1-methyl-3-(trifluoromethyl)-1H-pyrazol-4-yl)benzamide], in assay [1] (setting [3]), the Ki was under 0.1 nM. For the same compound, the GI50 in assay [2] was under 100 nM.
Taken in the same sequence, the figures for `COc1cc([C@@H](NC(=O)c2cc(Cn3ccsc3=N)cc(-c3cn(C)nc3C(F)(F)F)c2)C2CC2)ccc1F` [Example 327, (S)—N-(Cyclopropyl(4-fluoro-3-methoxyphenyl)methyl)-3-((2-iminothiazol-3(2H)-yl)methyl)-5-(1-methyl-3-(trifluoromethyl)-1H-pyrazol-4-yl)benzamide] were under 0.1 nM and under 100 nM.
Taken in the same sequence, the figures for `CCn1cc(-c2cc(Cn3ccsc3=N)cc(C(=O)N[C@H](c3ccc(F)c(OC)c3)C3CC3)c2)c(C(F)(F)F)n1` [Example 328, (S)—N-(Cyclopropyl(4-fluoro-3-methoxyphenyl)methyl)-3-(1-ethyl-3-(trifluoromethyl)-1H-pyrazol-4-yl)-5-((2-iminothiazol-3(2H)-yl)methyl)benzamide] were under 0.1 nM and under 100 nM.
Taken in the same sequence, the figures for `Cc1cc([C@@H](NC(=O)c2cc(CN3CCCC3=N)cc(-c3ccc(F)cc3C#N)c2)C2CC2)ccc1F` [Example 333, (S)-2′-Cyano-N-(cyclopropyl(4-fluoro-3-methylphenyl)methyl)-4′-fluoro-5-((2-iminopyrrolidin-1-yl)methyl)-[1,1′-biphenyl]-3-carboxamide] were 0.39 nM and 520 nM.
Consider `Cc1cc([C@@H](NC(=O)c2cc(CN3CCCC3=N)cc(-c3cccnc3C(F)(F)F)c2)C2CC2)ccc1F` [Example 334, (S)—N-(Cyclopropyl(4-fluoro-3-methylphenyl)methyl)-3-((2-iminopyrrolidin-1-yl)methyl)-5-(2-(trifluoromethyl)pyridin-3-yl)benzamide], for which, in assay [1] (setting [3]), the Ki is under 0.1 nM. For the same compound, the GI50 in assay [2] is under 100 nM.
The like results for `Cc1cc([C@@H](NC(=O)c2cc(CN3CCCC3=N)cc(-c3ccc(F)cc3C(F)(F)F)c2)C2CC2)ccc1F` [Example 335, (S)—N-(Cyclopropyl(4-fluoro-3-methylphenyl)methyl)-4′-fluoro-5-((2-iminopyrrolidin-1-yl)methyl)-2′-(trifluoromethyl)-[1,1′-biphenyl]-3-carboxamide] were, in that order, under 0.1 nM and under 100 nM.
`Cc1cc([C@@H](NC(=O)c2cc(CN3CCCC3=N)cc(-c3cn(C(C)C)nc3C(F)(F)F)c2)C2CC2)ccc1F` [Example 336, (S)—N-(Cyclopropyl(4-fluoro-3-methylphenyl)methyl)-3-((2-iminopyrrolidin-1 yl)methyl)-5-(1-isopropyl-3-(trifluoromethyl)-1H-pyrazol-4-yl)benzamide]: the Ki in assay [1] (setting [3]) was under 0.1 nM. Further, the GI50 in assay [2] is under 100 nM.
The like results for `Cc1cc([C@@H](NC(=O)c2cc(CN3CCCC3=N)cc(-c3cn(C)nc3C(F)(F)F)c2)C2CC2)ccc1F` [Example 337, (S)—N-(Cyclopropyl(4-fluoro-3-methylphenyl)methyl)-3-((2-iminopyrrolidin-1-yl)methyl)-5-(1-methyl-3-(trifluoromethyl)-1H-pyrazol-4-yl)benzamide] were, in that order, under 0.1 nM and under 100 nM.
Taken in the same sequence, the figures for `CCn1cc(-c2cc(CN3CCCC3=N)cc(C(=O)N[C@H](c3ccc(F)c(Cl)c3)C3CC3)c2)c(C(F)(F)F)n1` [Example 338, (S)—N-((3-Chloro-4-fluorophenyl)(cyclopropyl)methyl)-3-(1-ethyl-3-(trifluoromethyl)-1H-pyrazol-4-yl)-5-((2-iminopyrrolidin-1-yl)methyl)benzamide] were under 0.1 nM and under 100 nM.
Turning to `COc1cc([C@@H](NC(=O)c2cc(CN3CCCC3=N)cc(-c3cn(C)nc3C(F)(F)F)c2)C2CC2)ccc1F` [Example 339, (S)—N-(Cyclopropyl(4-fluoro-3-methoxyphenyl)methyl)-3-((2-iminopyrrolidin-1-yl)methyl)-5-(1-methyl-3-(trifluoromethyl)-1H-pyrazol-4-yl)benzamide], in assay [1], the inhibitory constant (Ki) is under 0.1 nM. In addition, in assay [2], the GI50 came to 100 nM.
With `N=C1CCCN1Cc1cc(C(=O)N[C@H](c2ccc(F)c(Cl)c2)C2CC2)cc(-c2cccnc2C(F)(F)F)c1` [Example 340, (S)—N-((3-Chloro-4-fluorophenyl)(cyclopropyl)methyl)-3-((2-iminopyrrolidin-1-yl)methyl)-5-(2-(trifluoromethyl)pyridin-3-yl)benzamide], the Ki in assay [1] (setting [3]) was under 0.1 nM. The GI50 in assay [2] was under 100 nM.
The like results for `Cn1cc(-c2cc(CN3CCCC3=N)cc(C(=O)N[C@H](c3ccc(F)c(F)c3)C3CC3)c2)c(C(F)(F)F)n1` [Example 341, (S)—N-(Cyclopropyl(3,4-difluorophenyl)methyl)-3-((2-iminopyrrolidin-1-yl)methyl)-5-(1-methyl-3-(trifluoromethyl)-1H-pyrazol-4-yl)benzamide] were, in that order, 0.35 nM and 100 nM.
The like results for `Cc1cc([C@@H](NC(=O)c2cc(Cn3ccccc3=N)cc(-c3cccnc3C(F)(F)F)c2)C2CC2)ccc1F` [Example 342, (S)—N-(Cyclopropyl(4-fluoro-3-methylphenyl)methyl)-3-((2-iminopyridin-1(2H)-yl)methyl)-5-(2-(trifluoromethyl)pyridin-3-yl)benzamide] were, in that order, under 0.1 nM and under 100 nM.
For `Cc1cc([C@@H](NC(=O)c2cc(Cn3cccc(C)c3=N)cc(-c3cccnc3C(F)(F)F)c2)C2CC2)ccc1F` [Example 343, (S)—N-(Cyclopropyl(4-fluoro-3-methylphenyl)methyl)-3-((2-imino-3-methylpyridin-1(2H)-yl)methyl)-5-(2-(trifluoromethyl)pyridin-3-yl)benzamide], in assay [1] (setting [3]), the Ki was 0.51 nM. In assay [2], the GI50 came out at 250 nM.
For `Cc1ccn(Cc2cc(C(=O)N[C@H](c3ccc(F)c(C)c3)C3CC3)cc(-c3cccnc3C(F)(F)F)c2)c(=N)c1` [Example 344, (S)—N-(Cyclopropyl(4-fluoro-3-methylphenyl)methyl)-3-((2-imino-4-methylpyridin-1(2H)-yl)methyl)-5-(2-(trifluoromethyl)pyridin-3-yl)benzamide], in assay [1], the Ki amounted to 0.48 nM. For the same compound, in assay [2], the GI50 was found to be 680 nM.
Turning to `CCOc1c(C(=O)N[C@H](c2ccc(F)c(C)c2)C2CC2)cc(Cn2ccccc2=N)cc1-c1cn(C)nc1C(F)(F)F` [Example 347, (S)—N-(Cyclopropyl(4-fluoro-3-methylphenyl)methyl)-2-ethoxy-5-((2-iminopyridin-(2H)-yl)methyl)-3-(1-methyl-3-(trifluoromethyl)-1H-pyrazol-4-yl)benzamide], in assay [1] (setting [3]), the Ki was under 0.1 nM. In addition, the GI50 in assay [2] is under 100 nM.
